Source: ChEMBL document CHEMBL5465560, “Selectivity Literature for EUbOPEN Chemogenomic Library” (2024)

What was measured:
[1] = target: Serine/threonine-protein kinase MARK1 (Homo sapiens) (UniProt Q9P0L2); assay: Selectivity interaction (KinomeScan (DiscoverX)) EUB0001049a MARK1; details: at 1 µM
[2] = target: Myosin light chain kinase, smooth muscle (Homo sapiens, UniProt Q15746); assay: Selectivity interaction (KinomeScan (DiscoverX)) EUB0000666a MYLK; details: at 10 µM
[3] = target: Cyclin-dependent kinase 8 (Homo sapiens, UniProt P49336); assay: Selectivity interaction (KinomeScan (DiscoverX)) EUB0001079a CDK8; details: at 1 µM
[4] = target: T1, Serine/threonine-protein kinase 4 (Homo sapiens) (UniProt Q13043); assay: Selectivity interaction (KinomeScan (DiscoverX)) EUB0001079a STK4; details: at 1 µM
T1 sequence (whole entry): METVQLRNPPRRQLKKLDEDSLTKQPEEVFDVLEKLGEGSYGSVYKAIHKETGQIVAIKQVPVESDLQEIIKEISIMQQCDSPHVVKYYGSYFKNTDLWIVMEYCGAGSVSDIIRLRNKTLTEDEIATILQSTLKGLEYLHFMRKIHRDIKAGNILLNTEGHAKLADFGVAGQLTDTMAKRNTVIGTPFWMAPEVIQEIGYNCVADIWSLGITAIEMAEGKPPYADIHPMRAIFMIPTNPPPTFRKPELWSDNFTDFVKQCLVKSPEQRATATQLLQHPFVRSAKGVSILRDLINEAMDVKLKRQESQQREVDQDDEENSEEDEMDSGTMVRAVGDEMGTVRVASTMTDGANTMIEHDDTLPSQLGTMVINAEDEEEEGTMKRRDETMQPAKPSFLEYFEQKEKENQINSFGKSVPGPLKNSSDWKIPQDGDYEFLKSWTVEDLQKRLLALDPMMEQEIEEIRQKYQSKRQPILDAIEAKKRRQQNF

[5] = target: Tyrosine-protein kinase receptor UFO (Homo sapiens) (UniProt P30530); details: at 10 µM
[6] = target: ALK tyrosine kinase receptor (Homo sapiens, UniProt Q9UM73); assay: Selectivity interaction (KinomeScan (DiscoverX)) EUB0000092b ALK; details: at 10 µM
[7] = target: Mast/stem cell growth factor receptor Kit (Homo sapiens, UniProt P10721); assay: (§1) Selectivity interaction (KinomeScan (DiscoverX)) EUB0000045b KIT
[8] = test system: Mast/stem cell growth factor receptor Kit (Homo sapiens), P10721 [V559D,V654A]; assay: as §1
[9] = test system: Mast/stem cell growth factor receptor Kit (Homo sapiens), P10721 [V559D]; assay: as §1
[10] = test system: Mast/stem cell growth factor receptor Kit (Homo sapiens), P10721 [A829P]; assay: as §1
[11] = test system: Mast/stem cell growth factor receptor Kit (Homo sapiens), P10721 [L576P]; assay: as §1
[12] = test system: Mast/stem cell growth factor receptor Kit (Homo sapiens), P10721 [D816H]; assay: as §1
[13] = test system: Mast/stem cell growth factor receptor Kit (Homo sapiens), P10721 [V559D,T670I]; assay: as §1
[14] = test system: Mast/stem cell growth factor receptor Kit (Homo sapiens), P10721 [D816V]; assay: as §1
[15] = target: Serine/threonine-protein kinase MRCK alpha (Homo sapiens) (UniProt Q5VT25); details: at 10 µM
[16] = target: PAS domain-containing serine/threonine-protein kinase (Homo sapiens) (UniProt Q96RG2); assay: Selectivity interaction (Upstate Kinase Profiler service (Millipore)) EUB0000056c PASK; details: at 1 µM
[17] = test system: Proto-oncogene tyrosine-protein kinase receptor Ret (Homo sapiens), P07949 [Y791F]; assay: (§2) Selectivity interaction (Kinase panel (Z-LYTE Assay)) EUB0001632a RET; details: at 10 µM
[18] = target: Proto-oncogene tyrosine-protein kinase receptor Ret (Homo sapiens, UniProt P07949); assay: as §2; details: at 10 µM
[19] = test system: Proto-oncogene tyrosine-protein kinase receptor Ret (Homo sapiens), P07949 [V804L]; assay: as §2; details: at 10 µM
[20] = test system: Proto-oncogene tyrosine-protein kinase receptor Ret (Homo sapiens), P07949 [S891A]; assay: as §2; details: at 10 µM
[21] = target: T2, Ephrin type-B receptor 2 (Homo sapiens) (UniProt P29323); assay: Selectivity interaction (ProQinase) EUB0000171b EPHB2
T2 sequence (whole entry): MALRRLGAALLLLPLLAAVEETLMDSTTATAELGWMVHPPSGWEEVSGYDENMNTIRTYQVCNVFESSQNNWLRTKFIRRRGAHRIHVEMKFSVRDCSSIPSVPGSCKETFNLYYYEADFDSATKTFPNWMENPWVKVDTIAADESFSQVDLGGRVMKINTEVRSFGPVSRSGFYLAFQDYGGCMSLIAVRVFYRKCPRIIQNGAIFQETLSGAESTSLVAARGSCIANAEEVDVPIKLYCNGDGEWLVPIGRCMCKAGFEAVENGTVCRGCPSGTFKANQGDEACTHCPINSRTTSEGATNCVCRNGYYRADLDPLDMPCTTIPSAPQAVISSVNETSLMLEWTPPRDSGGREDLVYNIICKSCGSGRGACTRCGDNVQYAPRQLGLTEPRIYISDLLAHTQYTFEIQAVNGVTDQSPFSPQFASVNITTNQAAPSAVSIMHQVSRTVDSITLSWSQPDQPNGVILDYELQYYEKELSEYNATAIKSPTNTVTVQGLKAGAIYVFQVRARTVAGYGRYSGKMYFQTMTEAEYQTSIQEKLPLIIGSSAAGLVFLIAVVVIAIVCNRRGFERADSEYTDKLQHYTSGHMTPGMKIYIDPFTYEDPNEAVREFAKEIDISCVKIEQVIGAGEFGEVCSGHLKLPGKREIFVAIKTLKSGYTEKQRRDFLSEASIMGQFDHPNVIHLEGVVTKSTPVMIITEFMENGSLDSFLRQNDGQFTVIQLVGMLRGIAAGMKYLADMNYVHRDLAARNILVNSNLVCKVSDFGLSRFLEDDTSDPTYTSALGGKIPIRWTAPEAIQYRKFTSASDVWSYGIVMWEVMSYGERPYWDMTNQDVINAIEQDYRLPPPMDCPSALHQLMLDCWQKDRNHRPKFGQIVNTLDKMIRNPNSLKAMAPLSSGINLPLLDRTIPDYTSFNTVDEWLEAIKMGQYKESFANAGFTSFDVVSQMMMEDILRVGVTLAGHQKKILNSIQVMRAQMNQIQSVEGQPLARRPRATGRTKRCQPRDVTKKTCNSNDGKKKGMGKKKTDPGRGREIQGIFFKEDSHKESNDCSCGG

[22] = target: Ribosomal protein S6 kinase alpha-5 (Homo sapiens) (UniProt O75582); assay: Selectivity interaction (ProQinase) EUB0000171b RPS6KA5
Sequence of Ribosomal protein S6 kinase alpha-5 (Homo sapiens) (O75582 whole entry, looked up): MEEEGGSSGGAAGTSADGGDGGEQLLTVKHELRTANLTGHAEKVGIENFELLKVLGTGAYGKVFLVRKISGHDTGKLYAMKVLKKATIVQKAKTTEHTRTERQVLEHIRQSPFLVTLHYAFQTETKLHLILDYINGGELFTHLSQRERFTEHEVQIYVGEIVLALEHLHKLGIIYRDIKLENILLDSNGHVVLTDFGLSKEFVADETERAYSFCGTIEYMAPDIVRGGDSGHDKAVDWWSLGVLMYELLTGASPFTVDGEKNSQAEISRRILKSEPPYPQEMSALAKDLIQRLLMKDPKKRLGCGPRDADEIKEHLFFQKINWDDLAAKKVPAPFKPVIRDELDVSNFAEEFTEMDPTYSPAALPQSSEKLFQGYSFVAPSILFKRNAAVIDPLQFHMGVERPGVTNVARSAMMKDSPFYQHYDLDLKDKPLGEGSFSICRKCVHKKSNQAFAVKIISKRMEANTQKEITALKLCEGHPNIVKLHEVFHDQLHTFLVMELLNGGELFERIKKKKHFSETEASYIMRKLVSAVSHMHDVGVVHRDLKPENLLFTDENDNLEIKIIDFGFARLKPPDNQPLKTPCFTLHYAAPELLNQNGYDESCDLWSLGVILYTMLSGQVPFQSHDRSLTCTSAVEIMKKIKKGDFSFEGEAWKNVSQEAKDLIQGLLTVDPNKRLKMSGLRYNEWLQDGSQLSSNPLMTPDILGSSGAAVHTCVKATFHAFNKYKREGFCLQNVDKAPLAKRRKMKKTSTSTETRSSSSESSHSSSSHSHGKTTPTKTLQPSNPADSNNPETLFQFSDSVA

Sequence of Mast/stem cell growth factor receptor Kit (Homo sapiens), P10721 [L576P] (P10721 whole entry L576P): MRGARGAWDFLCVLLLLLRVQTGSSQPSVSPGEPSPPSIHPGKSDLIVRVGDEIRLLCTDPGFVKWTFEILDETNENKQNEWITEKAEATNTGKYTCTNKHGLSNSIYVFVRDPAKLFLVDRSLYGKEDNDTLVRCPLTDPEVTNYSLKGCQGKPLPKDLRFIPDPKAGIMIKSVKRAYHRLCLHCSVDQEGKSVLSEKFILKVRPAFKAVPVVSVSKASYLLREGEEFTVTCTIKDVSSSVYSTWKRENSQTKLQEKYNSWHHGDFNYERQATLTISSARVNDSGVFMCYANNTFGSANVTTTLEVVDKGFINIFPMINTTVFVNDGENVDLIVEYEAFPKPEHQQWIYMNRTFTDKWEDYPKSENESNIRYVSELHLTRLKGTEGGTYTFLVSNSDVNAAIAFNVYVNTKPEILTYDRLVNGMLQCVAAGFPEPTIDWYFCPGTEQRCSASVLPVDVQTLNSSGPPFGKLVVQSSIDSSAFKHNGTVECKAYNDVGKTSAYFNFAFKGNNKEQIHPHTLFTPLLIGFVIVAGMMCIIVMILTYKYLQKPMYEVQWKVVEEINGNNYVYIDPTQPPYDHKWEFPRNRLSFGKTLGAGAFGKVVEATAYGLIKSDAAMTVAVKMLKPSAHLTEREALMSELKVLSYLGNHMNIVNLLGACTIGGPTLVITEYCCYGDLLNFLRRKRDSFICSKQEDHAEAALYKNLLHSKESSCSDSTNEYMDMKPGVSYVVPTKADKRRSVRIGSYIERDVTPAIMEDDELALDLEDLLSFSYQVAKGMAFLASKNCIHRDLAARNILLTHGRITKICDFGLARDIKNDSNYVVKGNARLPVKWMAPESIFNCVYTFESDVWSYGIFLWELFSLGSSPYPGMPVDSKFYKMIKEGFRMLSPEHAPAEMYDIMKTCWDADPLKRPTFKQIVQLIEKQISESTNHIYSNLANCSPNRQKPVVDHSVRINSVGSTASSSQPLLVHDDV
Sequence of Mast/stem cell growth factor receptor Kit (Homo sapiens), P10721 [A829P] (P10721 whole entry A829P): as the sequence (P10721 whole entry L576P) above, with P576L, A829P counted along it
Sequence of Mast/stem cell growth factor receptor Kit (Homo sapiens), P10721 [D816V] (P10721 whole entry D816V): as the sequence (P10721 whole entry L576P) above, with P576L, D816V counted along it
Sequence of Mast/stem cell growth factor receptor Kit (P10721 whole entry): as the sequence (P10721 whole entry L576P) above, with P576L counted along it

COc1cc(Nc2nc(C)cc(-c3cnn4nc(OC)ccc34)n2)cc(C(F)(F)F)c1
% of control [1]: 98%

O=C(NOC[C@H](O)CO)c1ccc(F)c(F)c1Nc1ccc(I)cc1F
% of control [2]: 100%

Nc1cnc(N2CCc3cc(S(=O)(=O)Nc4c(F)cc(Cl)cc4F)cc(N4CCCC4=O)c32)nc1 [TP-020n]
% of control [3]: 100%
% of control [4]: 100%

CCN(CC)CCCCNc1ncc2cc(-c3cc(OC)cc(OC)c3)c(NC(=O)NC(C)(C)C)nc2n1
% of control [5]: 100%

CCC(=O)N1CCN(c2ccc(-n3c(=O)ccc4cnc5ccc(-c6cnc7ccccc7c6)cc5c43)cc2C(F)(F)F)CC1
% of control [6]: 80%

C=CC(=O)Nc1cc(-n2c(=O)ccc3cnc4ccc(-c5ccc(NS(C)(=O)=O)cc5)cc4c32)ccc1C
% of control ([7]; at 1 µM): 89%
% of control ([7]; at 10 µM): 89%
% of control ([8]; at 1 µM): 100%
% of control ([8]; at 10 µM): 100%
% of control ([9]; at 1 µM): 87%
% of control ([9]; at 10 µM): 88%
% of control ([10]; at 1 µM): 74%
% of control ([10]; at 10 µM): 81%
% of control ([11]; at 1 µM): 100%
% of control ([11]; at 10 µM): 83%
% of control ([12]; at 1 µM): 99%
% of control ([12]; at 10 µM): 100%
% of control ([13]; at 1 µM): 100%
% of control ([13]; at 10 µM): 91%
% of control ([14]; at 1 µM): 69%
% of control ([14]; at 10 µM): 73%

Cc1cc([C@@H](C)Nc2ccccc2C(=O)O)c2nc(N3CCOCC3)cc(=O)n2c1 [AZD-6482]
% of control [15]: 96%

Cc1ccc(-c2ccc3c(ccc4sc5c(c43)NC[C@@H](C)NC5=O)n2)cn1
% of inhibition [16]: 44%

Cn1cc(-n2cnc3c(NCc4nc5cc(Cl)c(Cl)cc5[nH]4)nc(N4CCOCC4)nc32)cn1
% of control [17]: 6.92%
% of control [18]: 12%
% of control [19]: 6.91%
% of control [20]: 2.48%

C=CC(=O)Nc1cccc(C(=O)Nc2ccc(Nc3cc(-c4[nH]c(SC)nc4C)ccn3)cc2)c1
% of control ([21]; at 1 µM): 93%
% of control ([21]; at 5 µM): 78%
% of control ([22]; at 1 µM): 94%
% of control ([22]; at 5 µM): 87%
